Assay results published in patent US11369565B2, “Amino-pyrimidine skeletal muscle modulators” (Cytokinetics, Inc., priority 2010, dated 2022).

Tested on: rabbit skeletal myofibrils (approximately 90% fast fibers)
Test: Activation of fast skeletal myofibrils (PUMA coupled-enzyme ATPase assay at pCa25)
Type: biochemical
Details: concentration at which the compound increased the enzymatic activity by 40%; calcium at pCa25; PM12 buffer pH 6.8
Method: Preparation of fast skeletal myofibrils. Rabbit skeletal myofibrils were prepared based upon the method of Herrmann et al. (Biochem. 32(28):7255-7263(1993). Myofibrils were prepared from rabbit psoas muscle purchased from Pel-Freez Biologicals (Arkansas) within 2 days of ordering, stored on ice. Minced muscle was homogenized in 10 volumes of ice-cold “standard” buffer (50 mM Tris, pH 7.4, 0.1 M potassium acetate, 5 mM KCl, 2 mM DTT, 0.2 mM PMSF, 10 μM leupeptin, 5 μM pepstatin, and 0.5 mM sodium azide) containing 5 mM EDTA and 0.5% Triton X-100 using an Omni-Macro homogenizer. Myofibrils were recovered by low speed centrifugation (3000 rpm for 10 minutes) and washed 2 times in the Triton X-100 containing buffer to ensure removal of cellular membrane. Following the Triton washes, myofibrils were washed 3 times in “standard” buffer containing 2 mM magnesium acetate. A final wash in assay buffer (12 mM PIPES, pH 6.8, 60 mM KCl, 1 mM DTT) was performed and brought to 10% sucrose for flash freezing in liquid nitrogen and storage at −80° C.
Activation of Fast Skeletal Myofibrils. Fast fiber activators were identified by measuring the enzymatic activity of muscle myofibril preparations using the proprietary PUMA™ (see, e.g., U.S. Pat. Nos. 6,410,254, 6,743,599, 7,202,051, and 7,378,254) assay system. Myofibril preparations consisted of rabbit skeletal muscle (approximately 90% fast fibers) that had been mechanically homogenized and washed with a detergent (triton X-100) to remove cellular membranes. This preparation retained all of the sarcomeric components in a native conformation and the enzymatic activity was still regulated by calcium. Compounds were tested using a myofibril suspension and a level of calcium sufficient to increase enzymatic activity of the myofibrils to 25% of their maximal rate (termed pCa25). Enzymatic activity was tracked via a pyruvate kinase and lactate dehydrogenase-coupled enzyme system. This assay regenerates myosin-produced ADP into ATP by oxidizing NADH, producing an absorbance change at 340 nm. The buffering system was 12 mM Pipes, 2 mM MgCl2, 1 mM DTT at pH 6.8 (PM12 buffer).

Mean AC1.4 | Compound
C (C=10-20 uM) | NCc1cnc(-c2cnc(NCC3(c4ncccc4F)CCC3)nc2)s1 [{5-[5-(aminomethyl)(1,3-thiazol-2-yl)]pyrimidin-2-yl}{[(3-fluoro(2-pyridyl))cyclobutyl]methyl}amine]
C (C=10-20 uM) | Fc1cccnc1C1(CNc2ncc(-c3ncc[nH]3)cn2)CCC1 [{[(3-fluoro(2-pyridyl))cyclobutyl]methyl}(5-imidazol-2-ylpyrimidin-2-yl)amine]
D (D=>20 uM) | COC(=O)c1nc(-c2cnc(NC(C)(C)c3ncccc3Cl)nc2)cn1C [methyl 4-(2-{[1-(3-chloro(2-pyridyl))-isopropyl}amino}pyrimidin-5-yl)-1-methylimidazole-2-carboxylate]
D (D=>20 uM) | COc1ccnc(NC[C@]2(c3ncccc3F)C[C@H](F)C2)n1 [{[3-fluoro-1-(3-fluoro(2-pyridyl))cyclobutyl]methyl}(4-methoxypyrimidin-2-yl)amine]
D (D=>20 uM) | COc1nc(N(C)C[C@]2(c3ncccc3F)C[C@H](F)C2)ncc1-c1ccccc1 [{[3-fluoro-1-(3-fluoro(2-pyridyl))cyclobutyl]methyl}(4-methoxy-5-phenylpyrimidin-2-yl)methylamine]
B (B=1-10 uM) | O=C(Nc1nccs1)c1cnc(NCC2(c3ncccc3F)CCC2)nc1 [[2-({[(3-fluoro(2-pyridyl))cyclobutyl]methyl}amino)pyrimidin-5-yl]-N-(1,3-thiazol-2-yl)carboxamide]
C (C=10-20 uM) | O=C(Nc1cccnc1)c1cnc(NCC2(c3ncccc3F)CCC2)nc1 [[2-({[(3-fluoro(2-pyridyl))cyclobutyl]methyl}amino)pyrimidin-5-yl]-N-(3-pyridyl)carboxamide]
B (B=1-10 uM) | CS(=O)(=O)N1CC(NC(=O)c2cccc(-c3cnc(NC[C@]4(c5ncccc5F)C[C@H](F)C4)nc3)c2)C1 [{3-[2-({[3-fluoro-1-(3-fluoro(2-pyridyl))cyclobutyl]methyl}amino)pyrimidin-5-yl]phenyl}-N-[1-(methylsulfonyl)azetidin-3-yl]carboxamide]
B (B=1-10 uM) | CNC(=O)c1ccc(O)c(-c2cnc(NCC3(c4ncccc4F)CCC3)nc2)c1 [{3-[2-({[(3-fluoro(2-pyridyl))cyclobutyl]methyl}amino)pyrimidin-5-yl]-4-hydroxyphenyl}-N-methylcarboxamide]
D (D=>20 uM) | CC(C)(Nc1ncc(-c2cn3cc(C(N)=O)sc3n2)cn1)c1ncccc1Cl [6-(2-{[1-(3-chloro(2-pyridyl))-isopropyl}amino}pyrimidin-5-yl) imidazo[2,1-b]1,3-thiazoline-2-carboxamide]
D (D=>20 uM) | COc1ncc(-c2cnc(NC[C@]3(c4ncccc4F)C[C@H](F)C3)nc2)cn1 [{[3-fluoro-1-(3-fluoro(2-pyridyl))cyclobutyl]methyl} [5-(2-methoxypyrimidin-5-yl)pyrimidin-2-yl]amine]
D (D=>20 uM) | CC(C)(CNC(=O)c1cnc(NCC(C)(C)c2ccc(F)cc2)nc1)c1ccc(F)cc1 [N-[2-(4-fluorophenyl)-2-methylpropyl](2-{[2-(4-fluorophenyl)-2-methylpropyl]amino}pyrimidin-5-yl)carboxamide]
B (B=1-10 uM) | Nc1nc(NC[C@]2(c3ncccc3F)C[C@H](F)C2)ncc1-c1ccccc1 [(4-amino-5-phenylpyrimidin-2-yl){[3-fluoro-1-(3-fluoro(2-pyridyl))cyclobutyl)]methyl} amine]
D (D=>20 uM) | CC(C)(Nc1ncc(-c2nc(CNC(=O)[C@@H]3CCCN3)cs2)cn1)c1ncccc1F [((2S)pyrrolidin-2-yl)-N-{[2-(2-{[1-(3-fluoro(2-pyridyl))-isopropyl]amino}pyrimidin-5-yl)(1,3-thiazol-4-yl)]methyl}carboxamide]
D (D=>20 uM) | CCOC(=O)c1cc2cnc(NCC3(c4ncccc4F)CCC3)nc2s1 [ethyl 2-({[(3-fluoro-2-pyridyl)cyclobutyl]methyl}amino) thiopheno[2,3-d]pyrimidine-6-carboxylate]

The next lines start with the compound.

Compound | Mean AC1.4
O=C(O)c1cnc(NC2(c3ccc(F)cc3)CCC2)nc1C(F)(F)F [2-{[(4-fluorophenyl)cyclobutyl]amino}-4-(trifluoromethyl)pyrimidine-5-carboxylic acid] | D (D=>20 uM)
CC(C)(Nc1ncc(-c2noc(C(N)=O)n2)cn1)c1ncccc1Cl [3-(2-{[1-(3-chloro(2-pyridyl))-isopropyl]amino}pyrimidin-5-yl)-1,2,4-oxadiazole-5-carboxamide] | D (D=>20 uM)
C[S+]([O-])c1cccnc1C(C)(C)Nc1ncc(-c2cccc(C(N)=O)c2)cn1 (stereo not shown) [3-(2-(2-(3-(methylsulfinyl)pyridin-2-yl)propan-2-ylamino)pyrimidin-5-yl)benzamide] | D (D=>20 uM)
Cc1ccc(F)c([C@]2(CNc3ncc(-c4cccc(C(N)=O)c4)cn3)C[C@@H](F)C2)n1 [3-[2-({[3-fluoro-1-(3-fluoro-6-methyl(2-pyridyl))cyclobutyl]methyl}amino)pyrimidin-5-yl]benzamide] | A (A=<1 uM)
CSc1cccnc1C(C)(C)Nc1ncc(-c2cccc(C(N)=O)c2)cn1 [3-(2-{[1-methyl-1-(3-methylthio(2-pyridyl))ethyl]amino}pyrimidin-5-yl)benzamide] | B (B=1-10 uM)
CC(C)(Nc1ncc(-n2ccc(C(N)=O)c2)cn1)c1ncccc1Cl [1-(2-{[1-(3-chloro(2-pyridyl))-isopropyl]amino}pyrimidin-5-yl)pyrrole-3-carboxamide] | B (B=1-10 uM)
CSc1ccccc1C(C)(C)Nc1ncc(-c2cccc(C#N)c2)cn1 [3-(2-{[1-methyl-1-(2-methylthiophenyl)ethyl]amino}pyrimidin-5-yl)benzenecarbonitrile] | A (A=<1 uM)
NC(=O)Cc1cnc(-c2cnc(NC[C@]3(c4ncccc4Cl)C[C@H](F)C3)nc2)s1 [2-{2-[2-({[1-(3-chloro(2-pyridyl))-3-fluorocyclobutyl]methyl}amino)pyrimidin-5-yl]-1,3-thiazol-5-yl}acetamide] | B (B=1-10 uM)
CC(C)(Nc1ncc(-c2ncc(C(=O)O)o2)cn1)c1ncccc1Cl [2-(2-{[1-(3-chloro(2-pyridyl))-isopropyl]amino}pyrimidin-5-yl)-1,3-oxazole-5-carboxylic acid] | D (D=>20 uM)
NC(=O)c1cnc(NC2(c3ccc(F)cc3)CCC2)nc1C(F)(F)F [2-{[(4-fluorophenyl)cyclobutyl]amino}-4-(trifluoromethyl)pyrimidine-5-carboxamide] | B (B=1-10 uM)
CC(C)(Nc1ncc(-n2cc(C(=O)O)cn2)cn1)c1ncccc1Cl [1-(2-{[1-(3-chloro(2-pyridyl))-isopropyl]amino}pyrimidin-5-yl)pyrazole-4-carboxylic acid] | D (D=>20 uM)
CC(C)(Nc1ncc(-c2nccc(C(N)=O)n2)cn1)c1ncccc1F [2-(2-{[1-(3-fluoro(2-pyridyl))-isopropyl]amino}pyrimidin-5-yl)pyrimidine-4-carboxamide] | D (D=>20 uM)
Cn1nc(C(N)=O)cc1-c1cnc(NC(C)(C)c2ncccc2Cl)nc1 [5-(2-{[1-(3-chloro(2-pyridyl))-isopropyl}amino}pyrimidin-5-yl)-1-methylpyrazole-3-carboxamide] | D (D=>20 uM)
CC(C)(CNc1ncc(-c2nccc(C(N)=O)n2)cn1)c1ncccc1F [2-(2-{[2-(3-fluoro(2-pyridyl))-2-methylpropyl]amino)pyrimidin-5-yl)pyrimidine-4-carboxamide] | C (C=10-20 uM)
NC(=O)c1cc(-c2cnc(NC3(c4ccc(F)cc4)CCC3)nc2)ccn1 [4-(2-{[(4-fluorophenyl)cyclobutyl]amino}pyrimidin-5-yl)pyridine-2-carboxamide] | B (B=1-10 uM)
N-(2-aminoethyl)[2-({[(3-fluoro(2- pyridyl))cyclobutyl]methyl}amino) pyrimidin-5-yl]carboxamide | D (D=>20 uM)
CC(C)(Nc1ncc(-c2cccc(C(N)=O)c2)cn1)c1ccc(S(C)(=O)=O)cc1 [3-[2-({1-methyl-1-[4-(methylsulfonyl)phenyl]ethyl}amino)pyrimidin-5-yl)benzamide] | D (D=>20 uM)
N#Cc1cnn(-c2cnc(NC[C@]3(c4ncccc4F)C[C@H](F)C3)nc2)c1 [1-[2-({[3-fluoro-1-(3-fluoro(2-pyridyl))cyclobutyl]methyl}amino)pyrimidin-5-yl]pyrazole-4-carbonitrile] | C (C=10-20 uM)
CC(C)(Nc1ncc(-c2cnc3c(c2)NC(=O)C3)cn1)c1ncccc1Cl [6-(2-{[1-(3-chloro(2-pyridyl))-isopropyl]amino}pyrimidin-5-yl)-2-pyrrolino[3,2-b]pyridin-2-one] | D (D=>20 uM)
